pIC50: −log10 of the molar value.

ROCK2, sequence (O75116 whole entry, species assumed): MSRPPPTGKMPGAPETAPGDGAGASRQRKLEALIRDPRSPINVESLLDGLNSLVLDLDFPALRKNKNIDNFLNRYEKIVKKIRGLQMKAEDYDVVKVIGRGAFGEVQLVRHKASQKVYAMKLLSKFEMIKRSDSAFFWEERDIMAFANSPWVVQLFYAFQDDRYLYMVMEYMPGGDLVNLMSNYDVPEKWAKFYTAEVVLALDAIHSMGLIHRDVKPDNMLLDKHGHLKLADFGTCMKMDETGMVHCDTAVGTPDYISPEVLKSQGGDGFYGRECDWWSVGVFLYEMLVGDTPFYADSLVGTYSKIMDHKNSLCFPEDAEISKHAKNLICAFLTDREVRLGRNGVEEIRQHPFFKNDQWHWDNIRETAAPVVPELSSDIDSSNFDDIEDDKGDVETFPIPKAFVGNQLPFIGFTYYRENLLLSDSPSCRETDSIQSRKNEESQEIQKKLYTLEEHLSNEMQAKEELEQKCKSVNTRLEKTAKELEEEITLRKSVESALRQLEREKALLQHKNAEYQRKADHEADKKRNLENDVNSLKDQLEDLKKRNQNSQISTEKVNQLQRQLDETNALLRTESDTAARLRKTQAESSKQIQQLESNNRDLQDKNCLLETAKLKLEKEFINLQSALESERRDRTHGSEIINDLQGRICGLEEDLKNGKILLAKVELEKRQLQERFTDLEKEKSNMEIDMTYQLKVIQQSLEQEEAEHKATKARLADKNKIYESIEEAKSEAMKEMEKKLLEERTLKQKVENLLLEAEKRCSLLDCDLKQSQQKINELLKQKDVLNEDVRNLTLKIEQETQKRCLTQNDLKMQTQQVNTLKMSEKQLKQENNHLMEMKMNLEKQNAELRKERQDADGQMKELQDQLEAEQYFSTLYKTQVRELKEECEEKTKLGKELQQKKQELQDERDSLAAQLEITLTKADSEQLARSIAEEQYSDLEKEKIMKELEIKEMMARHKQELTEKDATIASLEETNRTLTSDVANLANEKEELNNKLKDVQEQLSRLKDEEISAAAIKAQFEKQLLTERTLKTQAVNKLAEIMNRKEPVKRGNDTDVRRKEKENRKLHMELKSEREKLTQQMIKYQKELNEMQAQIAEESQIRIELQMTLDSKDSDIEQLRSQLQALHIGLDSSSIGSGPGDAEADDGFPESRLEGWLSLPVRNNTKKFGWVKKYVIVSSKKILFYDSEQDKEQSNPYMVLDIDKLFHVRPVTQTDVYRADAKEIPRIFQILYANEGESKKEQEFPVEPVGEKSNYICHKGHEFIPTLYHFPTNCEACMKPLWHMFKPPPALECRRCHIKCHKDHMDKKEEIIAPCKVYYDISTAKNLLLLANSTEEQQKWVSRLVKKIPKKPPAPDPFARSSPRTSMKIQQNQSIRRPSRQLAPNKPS

The target in this test is ROCK2 (Homo sapiens, UniProt O75116). Kind of test: ROCK kinase inhibition assay, FITC peptide substrate, LABCHIP 3000 readout. The class given is biochemical. The note with it: 5 μM ATP, 1.5 μM peptide substrate. In a few lines:
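Tested across a concentration range, with percent inhibition of kinase activity derived per concentration. Peptide phosphorylation, initiated by adding the Rho kinase variant (final DMSO <2%), was quenched with EDTA and substrate/product resolved by mobility shift.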
For the compound `COc1cc(N2CCC3(CCN(C(=O)c4ccc(-n5ccncc5=O)cc4)CC3)C2=O)ccc1-c1cn[nH]c1` [Example 146, 2-[3-methoxy-4-(1H-pyrazol-4-yl)phenyl]-8-[4-(2-oxo-1,2-dihydropyrazin-1-yl)benzoyl]-2,8-diazaspiro[4.5]decan-1-one], the pIC50 was 7.92.

Take `COc1cc(N2CCC3(CCN(C(=O)c4ccc(N5CCCCS5(=O)=O)cc4)CC3)C2=O)ccc1-c1cn[nH]c1` [Example 192, 8-(4-(1,1-dioxido-1,2-thiazinan-2-yl)benzoyl)-2-(3-methoxy-4-(1H-pyrazol-4-yl)phenyl)-2,8-diazaspiro[4.5]decan-1-one]: the pIC50 was 8.48.

Compound `O=C(c1ccccc1)N1CCC2(CCN(c3ccc(-c4cn[nH]c4)cc3)C2=O)C1` (centres unmarked) [Example 42, 7-benzoyl-2-[4-(1H-pyrazol-4-yl)phenyl]-2,7-diazaspiro[4.4]nonan-1-one] showed a pIC50 of 5.91.

Turning to `COc1cc(N2CCC3(CCN(C(=O)c4ccc(F)c(C)c4)CC3)C2=O)ccc1-c1cn[nH]c1` [Example 103, 8-(4-fluoro-3-methylbenzoyl)-2-[3-methoxy-4-(1H-pyrazol-4-yl)phenyl]-2,8-diazaspiro[4.5]decan-1-one], the pIC50 was 7.02.

`COc1cc(N2CCC3(CCN(C(=O)C4CCC(C(N)=O)CC4)CC3)C2=O)ccc1-c1cn[nH]c1` (centres unmarked) [Example 148, 4-{2-[3-methoxy-4-(H-pyrazol-4-yl)phenyl]-1-oxo-2,8-diazaspiro[4.5]decane-8-carbonyl}cyclohexane-1-carboxamide] had a pIC50 of 5.66. Compared with the last compound, the pIC50 is 1.36 log units lower.

Turning to `COc1cc(N2CCC3(CCN(C(=O)c4ccc(N5CCN(CCOCc6ccccc6)CC5)cc4)CC3)C2=O)ccc1-c1cn[nH]c1` [Example 221, 8-(4-{4-[2-(benzyloxy)ethyl]piperazin-1-yl}benzoyl)-2-[3-methoxy-4-(1H-pyrazol-4-yl)phenyl]-2,8-diazaspiro[4.5]decan-1-one], the pIC50 is 9.40.

Turning to `COc1cc(N2CCC3(CCN(C(=O)c4ccc(-c5nn[nH]n5)cc4)CC3)C2=O)ccc1-c1cn[nH]c1` [Example 143, 2-[3-methoxy-4-(1H-pyrazol-4-yl)phenyl]-8-[4-(2H-1,2,3,4-tetrazol-5-yl)benzoyl]-2,8-diazaspiro[4.5]decan-1-one], the pIC50 was 5.99.

Compound `COc1cc(N2CCC3(CCN(C(=O)c4ccc5c(c4)ncn5C)CC3)C2=O)ccc1-c1cn[nH]c1` [Example 164, 2-[3-methoxy-4-(1H-pyrazol-4-yl)phenyl]-8-(1-methyl-1H-1,3-benzodiazole-5-carbonyl)-2,8-diazaspiro[4.5]decan-1-one] showed a pIC50 of 8.59.

Regarding `COc1cc(N2CCC3(CCN(C(=O)c4cc5ccccc5o4)CC3)C2=O)ccc1-c1cn[nH]c1` [Example 70, 8-(1-benzofuran-2-carbonyl)-2-[3-methoxy-4-(1H-pyrazol-4-yl)phenyl]-2,8-diazaspiro[4.5]decan-1-one], the pIC50 was 6.28.

`COc1ccc(C(=O)N2CCC3(CC2)CCN(c2ccc(-c4cn[nH]c4)c(OC)c2)C3=O)cc1` [Example 13, 2-[3-methoxy-4-(1H-pyrazol-4-yl)phenyl]-8-(4-methoxybenzoyl)-2,8-diazaspiro[4.5]decan-1-one] gave a pIC50 of 8.10.

For the compound `COc1c(F)cccc1C(=O)N1CCC2(CC1)CCN(c1ccc(-c3cn[nH]c3)cc1)C2=O` [Example 8, 8-(3-Fluoro-2-methoxybenzoyl)-2-[4-(1H-pyrazol-4-yl)phenyl]-2,8-diazaspiro[4.5]decan-1-one], the pIC50 is 6.95.

As for `COc1ccc(C(=O)N2CCC3(CC2)CCN(c2ccc(-c4cn[nH]c4)c(OC)c2)C3=O)c(Cl)c1` [Example 122, 8-(2-chloro-4-methoxybenzoyl)-2-[3-methoxy-4-(1H-pyrazol-4-yl)phenyl]-2,8-diazaspiro[4.5]decan-1-one], the pIC50 was 7.96.

Turning to `COc1cc(N2CCC3(CCN(C(=O)c4ccc5cnccc5c4)CC3)C2=O)ccc1-c1cn[nH]c1` [Example 166, 8-(isoquinoline-6-carbonyl)-2-[3-methoxy-4-(1H-pyrazol-4-yl)phenyl]-2,8-diazaspiro[4.5]decan-1-one], the pIC50 is 7.48.

Consider `COc1cc(N2CCC3(CCN(C(=O)c4cnc5n(c4=O)CCS5)CC3)C2=O)ccc1-c1cn[nH]c1` [Example 81, 2-[3-methoxy-4-(1H-pyrazol-4-yl)phenyl]-8-{5-oxo-2H,3H,5H-[1,3]thiazolo[3,2-a]pyrimidine-6-carbonyl}-2,8-diazaspiro[4.5]decan-1-one], for which the pIC50 was 7.24.

Compound `COc1cc(N2CCC3(CCN(C(=O)c4cnc(Cl)cn4)CC3)C2=O)ccc1-c1cn[nH]c1` [Example 115, 8-(5-chloropyrazine-2-carbonyl)-2-[3-methoxy-4-(1H-pyrazol-4-yl)phenyl]-2,8-diazaspiro[4.5]decan-1-one] showed a pIC50 of 6.70.

As to `CN1CCN(c2ccc(C(=O)N3CCC4(CC3)CCN(c3ccc(-c5ccnc(O)c5)cc3)C4=O)cc2)CC1` [Example 32, 2-[4-(2-hydroxypyridin-4-yl)phenyl]-8-[4-(4-methylpiperazin-1-yl)benzoyl]-2,8-diazaspiro[4.5]decan-1-one], the pIC50 was 7.27.

`COc1cc(N2CCC3(CCN(C(=O)c4ccn5nc[nH]c(=O)c45)CC3)C2=O)ccc1-c1cn[nH]c1` [Example 202, 2-[3-methoxy-4-(1H-pyrazol-4-yl)phenyl]-8-{4-oxo-3H,4H-pyrrolo[2,1-f][1,2,4]triazine-5-carbonyl}-2,8-diazaspiro[4.5]decan-1-one]: the pIC50 was 8.27.

For `COc1cc(N2CCC3(CCN(C(=O)c4ccc5c(c4)nnn5C)CC3)C2=O)ccc1-c1cn[nH]c1` [Example 196, 2-[3-methoxy-4-(1H-pyrazol-4-yl)phenyl]-8-(1-methyl-1H-1,2,3-benzotriazole-5-carbonyl)-2,8-diazaspiro[4.5]decan-1-one], the pIC50 was 8.04.

For `COc1cc(N2CCC3(CCN(C(=O)c4ccc(-n5cccc5)cc4)CC3)C2=O)ccc1-c1cn[nH]c1` [Example 193, 2-[3-methoxy-4-(1H-pyrazol-4-yl)phenyl]-8-[4-(1H-pyrrol-1-yl)benzoyl]-2,8-diazaspiro[4.5]decan-1-one], the pIC50 was 7.92.

For `COc1cc(N2CCC3(CCN(C(=O)C4CCN(c5ncccn5)CC4)CC3)C2=O)ccc1-c1cn[nH]c1` [Example 140, 2-[3-methoxy-4-(1H-pyrazol-4-yl)phenyl]-8-[1-(pyrimidin-2-yl)piperidine-4-carbonyl]-2,8-diazaspiro[4.5]decan-1-one], the pIC50 is 5.91. This pIC50 is 2.01 log units lower than that of the compound before.

Compound `COc1cc(N2CCC3(CCN(C(=O)c4ccc(C5CC5)cc4)CC3)C2=O)ccc1-c1cn[nH]c1` [Example 19, 8-(4-cyclopropylbenzoyl)-2-[3-methoxy-4-(1H-pyrazol-4-yl)phenyl]-2,8-diazaspiro[4.5]decan-1-one] had a pIC50 of 8.00. Against the preceding compound, the pIC50 is 2.09 log units higher.

`O=C(c1ccccc1)N1CCC2(CC1)CCN(c1ccc(-c3cn[nH]c3)cc1)C2=O` [Example 1, 8-benzoyl-2-[4-(1H-pyrazol-4-yl)phenyl]-2,8-diazaspiro[4.5]decan-1-one] gave a pIC50 of 6.49.

Turning to `COc1cc(N2CCC3(CCN(C(=O)c4csc(-c5cccnc5)n4)CC3)C2=O)ccc1-c1cn[nH]c1` [Example 78, 2-[3-methoxy-4-(1H-pyrazol-4-yl)phenyl]-8-[2-(pyridin-3-yl)-1,3-thiazole-4-carbonyl]-2,8-diazaspiro[4.5]decan-1-one], the negative logarithm of the IC50 (pIC50) is 7.12.

As for `COc1cc(N2CCC3(CCN(C(=O)c4cc5ncc(Br)cn5n4)CC3)C2=O)ccc1-c1cn[nH]c1` [Example 93, 8-{6-bromopyrazolo[1,5-a]pyrimidine-2-carbonyl}-2-[3-methoxy-4-(1H-pyrazol-4-yl)phenyl]-2,8-diazaspiro[4.5]decan-1-one], the pIC50 was 8.30.

As for `COc1cnc(C(=O)N2CCC3(CC2)CCN(c2ccc(-c4cn[nH]c4)c(OC)c2)C3=O)cn1` [Example 101, 2-[3-methoxy-4-(1H-pyrazol-4-yl)phenyl]-8-(5-methoxypyrazine-2-carbonyl)-2,8-diazaspiro[4.5]decan-1-one], the pIC50 was 7.07.

Consider `COc1cc(N2CCC3(CCN(C(=O)c4ccc(C)s4)CC3)C2=O)ccc1-c1cn[nH]c1` [Example 66, 2-[3-methoxy-4-(1H-pyrazol-4-yl)phenyl]-8-(5-methylthiophene-2-carbonyl)-2,8-diazaspiro[4.5]decan-1-one], for which the pIC50 is 6.43. This pIC50 lies 0.64 log units lower than the previous one.

As to `COc1cc(N2CCC3(CCN(C(=O)c4ccc(N5CCN(Cc6ccc(OCCCN(C)C)cc6)CC5)cc4)CC3)C2=O)ccc1-c1cn[nH]c1` [Example 237, 8-{4-[4-({4-[3-(dimethylamino)propoxy]phenyl}methyl)piperazin-1-yl]benzoyl}-2-[3-methoxy-4-(1H-pyrazol-4-yl)phenyl]-2,8-diazaspiro[4.5]decan-1-one], the pIC50 was 10.00. This pIC50 is 3.57 log units higher than that of the compound before.

Regarding `O=C1N(c2ccc(-c3cn[nH]c3)cc2)CCC12CCN(S(=O)(=O)c1ccccc1)C2` (centres unmarked) [Example 46, 7-(benzenesulfonyl)-2-[4-(1H-pyrazol-4-yl)phenyl]-2,7-diazaspiro[4.4]nonan-1-one], the pIC50 is 6.12. Compared with the last compound, the pIC50 is 3.88 log units lower.

On to `COc1cc(N2CCC3(CCN(C(=O)c4ccc(-c5cc[nH]n5)cc4)CC3)C2=O)ccc1-c1cn[nH]c1` [Example 53, 2-[3-methoxy-4-(1H-pyrazol-4-yl)phenyl]-8-[4-(1H-pyrazol-3-yl)benzoyl]-2,8-diazaspiro[4.5]decan-1-one], for which the pIC50 was 7.78.

Take `COc1cc(N2CCC3(CCN(C(=O)c4c(C)cc(C(N)=O)cc4C)CC3)C2=O)ccc1-c1cn[nH]c1` [Example 30, 4-{2-[3-methoxy-4-(1H-pyrazol-4-yl)phenyl]-1-oxo-2,8-diazaspiro[4.5]decane-8-carbonyl}-3,5-dimethylbenzamide]: the pIC50 was 6.89.

Regarding `COc1ccc(C(=O)N2CCC3(CC2)CCN(c2ccc(-c4cn[nH]c4)c(OC)c2)C3=O)nc1` [Example 16, 2-[3-methoxy-4-(1H-pyrazol-4-yl)phenyl]-8-(5-methoxypyridine-2-carbonyl)-2,8-diazaspiro[4.5]decan-1-one], the negative logarithm of the IC50 (pIC50) was 7.89.

The compound `CN1CCN(c2ccc(C(=O)N3CCC4(CC3)CCN(c3ccc(-c5cn[nH]c5)cc3)C4=O)cc2)CC1` [Example 31, 8-[4-(4-methylpiperazin-1-yl)benzoyl]-2-[4-(1H-pyrazol-4-yl)phenyl]-2,8-diazaspiro[4.5]decan-1-one] had a pIC50 of 9.15.

A word on the pIC50: it is −log10 of the IC50, conventionally taken in molar units. High values mean a small IC50, low ones a large IC50.

Values taken from US11192891B2, “Diazaspiro ROCK inhibitors” (BRISTOL-MYERS SQUIBB COMPANY, priority 2017, dated 2021).
